Assays:
Assay in all cases: apparent dissociation constant (pKDapp, Kinobeads competition, Cheng-Prusoff corrected) (-log10 M); higher = tighter binding
[1] = molecular target: PIP4K2A (UniProt P48426); details: affinity matrix / lysate: Kinobeads, mixed HEK293/K-562/placenta lysate
[2] = molecular target: PAK4 (UniProt O96013); details: affinity matrix / lysate: Kinobeads, mixed HEK293/K-562/placenta lysate
[3] = molecular target: MAST3 (UniProt O60307); details: affinity matrix / lysate: Kinobeads, mixed HEK293/K-562/placenta lysate
MAST3, sequence (O60307 whole entry): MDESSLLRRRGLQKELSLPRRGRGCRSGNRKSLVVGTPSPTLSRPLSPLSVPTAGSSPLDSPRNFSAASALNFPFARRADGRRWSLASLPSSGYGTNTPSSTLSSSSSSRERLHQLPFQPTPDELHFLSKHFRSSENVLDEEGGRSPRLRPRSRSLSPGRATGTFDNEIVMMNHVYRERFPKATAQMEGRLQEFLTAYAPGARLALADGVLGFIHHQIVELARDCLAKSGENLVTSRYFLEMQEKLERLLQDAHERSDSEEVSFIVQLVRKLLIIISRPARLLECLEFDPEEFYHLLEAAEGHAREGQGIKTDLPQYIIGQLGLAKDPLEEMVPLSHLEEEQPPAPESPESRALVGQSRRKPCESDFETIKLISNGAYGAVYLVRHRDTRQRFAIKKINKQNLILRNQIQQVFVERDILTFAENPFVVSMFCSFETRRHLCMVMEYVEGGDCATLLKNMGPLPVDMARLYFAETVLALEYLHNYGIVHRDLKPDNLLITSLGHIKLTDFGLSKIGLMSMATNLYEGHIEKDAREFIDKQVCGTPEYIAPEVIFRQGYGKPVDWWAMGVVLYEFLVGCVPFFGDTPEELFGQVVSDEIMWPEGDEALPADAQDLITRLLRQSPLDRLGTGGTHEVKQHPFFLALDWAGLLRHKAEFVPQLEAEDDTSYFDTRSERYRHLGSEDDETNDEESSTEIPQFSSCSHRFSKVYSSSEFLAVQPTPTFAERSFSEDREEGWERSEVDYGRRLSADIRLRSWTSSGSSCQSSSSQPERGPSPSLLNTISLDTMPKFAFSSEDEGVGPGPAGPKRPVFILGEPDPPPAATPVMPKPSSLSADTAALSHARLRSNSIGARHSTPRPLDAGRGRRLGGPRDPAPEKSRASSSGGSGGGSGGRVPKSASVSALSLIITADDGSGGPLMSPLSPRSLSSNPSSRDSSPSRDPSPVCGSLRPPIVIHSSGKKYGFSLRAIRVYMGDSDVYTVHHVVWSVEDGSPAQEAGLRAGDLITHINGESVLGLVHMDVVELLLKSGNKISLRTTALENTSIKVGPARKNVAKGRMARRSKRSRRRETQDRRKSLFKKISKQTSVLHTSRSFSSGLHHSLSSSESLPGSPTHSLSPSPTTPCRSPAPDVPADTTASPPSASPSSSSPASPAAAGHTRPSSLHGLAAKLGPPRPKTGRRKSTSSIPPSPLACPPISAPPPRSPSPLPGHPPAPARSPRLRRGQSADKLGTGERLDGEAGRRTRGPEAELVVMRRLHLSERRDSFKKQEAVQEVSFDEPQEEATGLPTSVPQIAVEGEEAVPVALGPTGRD

[4] = molecular target: PRKD1 (UniProt Q15139); details: affinity matrix / lysate: Kinobeads, mixed HEK293/K-562/placenta lysate
[5] = molecular target: MARK4 (UniProt Q96L34); details: affinity matrix / lysate: Kinobeads, mixed HEK293/K-562/placenta lysate
[6] = molecular target: T1, PIK3CD (UniProt O00329)
T1 sequence (whole entry): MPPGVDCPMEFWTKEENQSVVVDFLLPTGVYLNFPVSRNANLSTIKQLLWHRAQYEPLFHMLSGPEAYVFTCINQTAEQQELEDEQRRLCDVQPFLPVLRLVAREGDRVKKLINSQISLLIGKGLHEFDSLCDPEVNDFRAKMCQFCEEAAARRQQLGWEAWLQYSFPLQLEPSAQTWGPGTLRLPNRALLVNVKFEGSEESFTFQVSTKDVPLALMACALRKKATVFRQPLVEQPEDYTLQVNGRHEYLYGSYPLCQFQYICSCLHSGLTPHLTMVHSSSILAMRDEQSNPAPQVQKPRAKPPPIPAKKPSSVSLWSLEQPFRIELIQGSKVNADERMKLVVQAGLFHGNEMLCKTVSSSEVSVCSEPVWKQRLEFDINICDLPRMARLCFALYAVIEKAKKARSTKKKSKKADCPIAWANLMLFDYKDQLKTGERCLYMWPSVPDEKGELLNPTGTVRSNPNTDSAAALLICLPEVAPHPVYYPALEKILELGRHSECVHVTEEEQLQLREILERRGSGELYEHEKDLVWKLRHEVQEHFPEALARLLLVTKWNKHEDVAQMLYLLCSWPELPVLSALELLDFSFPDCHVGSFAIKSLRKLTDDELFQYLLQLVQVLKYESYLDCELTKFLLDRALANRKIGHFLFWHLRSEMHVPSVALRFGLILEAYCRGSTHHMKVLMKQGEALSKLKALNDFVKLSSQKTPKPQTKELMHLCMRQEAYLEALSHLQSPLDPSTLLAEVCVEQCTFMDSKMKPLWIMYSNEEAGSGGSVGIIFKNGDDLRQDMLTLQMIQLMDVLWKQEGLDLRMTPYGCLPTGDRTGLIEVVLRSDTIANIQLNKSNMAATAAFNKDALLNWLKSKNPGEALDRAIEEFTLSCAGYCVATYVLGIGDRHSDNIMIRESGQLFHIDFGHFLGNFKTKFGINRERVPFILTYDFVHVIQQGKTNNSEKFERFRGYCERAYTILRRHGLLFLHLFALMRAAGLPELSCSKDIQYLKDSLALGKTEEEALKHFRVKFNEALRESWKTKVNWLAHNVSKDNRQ

[7] = molecular target: DAPK3 (UniProt O43293); details: affinity matrix / lysate: Kinobeads, mixed HEK293/K-562/placenta lysate
[8] = molecular target: TAOK2 (UniProt Q9UL54); details: affinity matrix / lysate: Kinobeads, mixed HEK293/K-562/placenta lysate
[9] = molecular target: KIT (UniProt P10721); details: affinity matrix / lysate: Kinobeads, mixed HEK293/K-562/placenta lysate
[10] = molecular target: STK39 (UniProt Q9UEW8); details: affinity matrix / lysate: Kinobeads, mixed HEK293/K-562/placenta lysate
[11] = molecular target: SLK (UniProt Q9H2G2); details: affinity matrix / lysate: Kinobeads, mixed HEK293/K-562/placenta lysate
SLK, sequence (Q9H2G2 whole entry, looked up): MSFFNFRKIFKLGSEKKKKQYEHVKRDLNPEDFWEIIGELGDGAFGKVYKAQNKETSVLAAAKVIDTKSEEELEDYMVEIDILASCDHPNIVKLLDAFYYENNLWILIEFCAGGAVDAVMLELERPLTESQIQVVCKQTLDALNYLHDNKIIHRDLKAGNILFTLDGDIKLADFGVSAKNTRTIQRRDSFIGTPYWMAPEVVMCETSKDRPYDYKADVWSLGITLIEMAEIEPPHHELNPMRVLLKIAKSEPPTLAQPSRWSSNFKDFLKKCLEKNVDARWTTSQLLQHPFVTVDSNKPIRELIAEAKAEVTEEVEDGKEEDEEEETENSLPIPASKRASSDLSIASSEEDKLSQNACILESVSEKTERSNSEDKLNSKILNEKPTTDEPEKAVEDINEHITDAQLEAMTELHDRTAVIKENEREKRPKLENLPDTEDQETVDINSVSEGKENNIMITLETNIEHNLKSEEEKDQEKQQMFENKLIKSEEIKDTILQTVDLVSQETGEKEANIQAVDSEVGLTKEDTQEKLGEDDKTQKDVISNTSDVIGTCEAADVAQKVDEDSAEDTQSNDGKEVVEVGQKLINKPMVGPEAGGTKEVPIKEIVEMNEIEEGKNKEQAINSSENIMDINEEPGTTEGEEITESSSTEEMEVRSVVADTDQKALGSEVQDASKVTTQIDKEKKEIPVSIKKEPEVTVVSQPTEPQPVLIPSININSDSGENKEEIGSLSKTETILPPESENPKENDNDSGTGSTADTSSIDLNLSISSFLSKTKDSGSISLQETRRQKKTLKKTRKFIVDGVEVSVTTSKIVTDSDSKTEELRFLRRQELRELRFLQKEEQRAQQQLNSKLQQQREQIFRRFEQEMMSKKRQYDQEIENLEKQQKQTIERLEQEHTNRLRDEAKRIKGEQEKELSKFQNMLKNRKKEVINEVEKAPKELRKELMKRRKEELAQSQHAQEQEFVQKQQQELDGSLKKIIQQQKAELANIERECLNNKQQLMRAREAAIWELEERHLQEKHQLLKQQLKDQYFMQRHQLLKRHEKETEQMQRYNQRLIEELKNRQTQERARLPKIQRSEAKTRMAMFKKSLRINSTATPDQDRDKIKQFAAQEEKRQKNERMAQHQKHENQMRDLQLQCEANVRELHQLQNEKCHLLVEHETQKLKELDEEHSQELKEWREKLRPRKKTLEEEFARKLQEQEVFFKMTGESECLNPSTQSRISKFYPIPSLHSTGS

[12] = molecular target: ACVR1B (UniProt P36896); details: affinity matrix / lysate: Kinobeads, mixed HEK293/K-562/placenta lysate
[13] = molecular target: FGR (UniProt P09769); details: affinity matrix / lysate: Kinobeads, mixed HEK293/K-562/placenta lysate
FGR, sequence (P09769 whole entry, looked up): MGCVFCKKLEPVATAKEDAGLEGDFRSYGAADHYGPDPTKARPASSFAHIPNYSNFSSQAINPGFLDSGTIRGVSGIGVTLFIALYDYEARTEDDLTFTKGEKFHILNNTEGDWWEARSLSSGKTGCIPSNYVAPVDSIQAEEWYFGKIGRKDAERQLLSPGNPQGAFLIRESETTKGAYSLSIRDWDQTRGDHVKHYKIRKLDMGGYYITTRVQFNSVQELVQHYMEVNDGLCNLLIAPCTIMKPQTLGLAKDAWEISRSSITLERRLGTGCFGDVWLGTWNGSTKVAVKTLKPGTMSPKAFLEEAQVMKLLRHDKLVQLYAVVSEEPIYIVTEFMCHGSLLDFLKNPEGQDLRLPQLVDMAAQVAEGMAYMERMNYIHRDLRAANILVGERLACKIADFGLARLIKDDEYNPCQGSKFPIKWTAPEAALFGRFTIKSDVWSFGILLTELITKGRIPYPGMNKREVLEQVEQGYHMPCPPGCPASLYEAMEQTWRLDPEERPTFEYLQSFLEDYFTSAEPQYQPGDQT

[14] = molecular target: RPS6KA3 (UniProt P51812); details: affinity matrix / lysate: Kinobeads, mixed HEK293/K-562/placenta lysate
[15] = molecular target: PTK2 (UniProt Q05397); details: affinity matrix / lysate: Kinobeads, mixed HEK293/K-562/placenta lysate
PTK2, sequence (Q05397 whole entry, looked up): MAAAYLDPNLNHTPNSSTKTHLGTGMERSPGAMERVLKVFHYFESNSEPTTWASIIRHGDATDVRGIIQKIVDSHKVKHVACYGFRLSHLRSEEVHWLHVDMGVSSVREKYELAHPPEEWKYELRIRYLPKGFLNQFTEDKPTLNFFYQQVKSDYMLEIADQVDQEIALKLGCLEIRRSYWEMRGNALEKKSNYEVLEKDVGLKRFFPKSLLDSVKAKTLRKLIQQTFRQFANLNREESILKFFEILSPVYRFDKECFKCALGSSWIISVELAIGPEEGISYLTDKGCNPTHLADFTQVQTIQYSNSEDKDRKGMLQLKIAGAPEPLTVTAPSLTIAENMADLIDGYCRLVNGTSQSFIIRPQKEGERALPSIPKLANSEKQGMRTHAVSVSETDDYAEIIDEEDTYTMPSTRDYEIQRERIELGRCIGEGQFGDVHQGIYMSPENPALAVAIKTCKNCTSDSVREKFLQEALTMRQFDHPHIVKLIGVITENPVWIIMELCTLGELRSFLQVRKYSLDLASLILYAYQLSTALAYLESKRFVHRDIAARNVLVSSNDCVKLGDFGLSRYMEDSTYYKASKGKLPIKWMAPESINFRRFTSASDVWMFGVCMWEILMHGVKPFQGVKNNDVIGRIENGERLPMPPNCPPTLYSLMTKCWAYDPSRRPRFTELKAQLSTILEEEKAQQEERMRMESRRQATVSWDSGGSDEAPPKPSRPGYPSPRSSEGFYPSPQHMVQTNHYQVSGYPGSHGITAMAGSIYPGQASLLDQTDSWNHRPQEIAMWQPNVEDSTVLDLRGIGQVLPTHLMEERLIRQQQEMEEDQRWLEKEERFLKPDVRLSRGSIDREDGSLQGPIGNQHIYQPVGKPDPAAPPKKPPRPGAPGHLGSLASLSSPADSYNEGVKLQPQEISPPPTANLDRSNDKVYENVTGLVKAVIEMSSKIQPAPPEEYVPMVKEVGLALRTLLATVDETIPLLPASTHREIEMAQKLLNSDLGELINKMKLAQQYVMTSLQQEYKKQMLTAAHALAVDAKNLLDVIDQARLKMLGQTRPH

[16] = molecular target: FGFR2 (UniProt P21802); details: affinity matrix / lysate: Kinobeads, mixed HEK293/K-562/placenta lysate
[17] = molecular target: KIAA1804 (UniProt Q5TCX8); details: affinity matrix / lysate: Kinobeads, mixed HEK293/K-562/placenta lysate
[18] = molecular target: PCTK3 (UniProt Q07002); details: affinity matrix / lysate: Kinobeads, mixed HEK293/K-562/placenta lysate
[19] = molecular target: BUB1 (UniProt O43683); details: affinity matrix / lysate: Kinobeads, mixed HEK293/K-562/placenta lysate
[20] = molecular target: KDR (UniProt P35968); details: affinity matrix / lysate: Kinobeads, mixed HEK293/K-562/placenta lysate
[21] = molecular target: RPS6KA2 (UniProt Q15349); details: affinity matrix / lysate: Kinobeads, mixed HEK293/K-562/placenta lysate
[22] = molecular target: RPS6KA6 (UniProt Q9UK32); details: affinity matrix / lysate: Kinobeads, mixed HEK293/K-562/placenta lysate
[23] = molecular target: ATM (UniProt Q13315); details: affinity matrix / lysate: Lipid Kinobeads, mixed HeLa/Jurkat/K-562 lysate
[24] = affinity matrix / lysate: Lipid Kinobeads, mixed HeLa/Jurkat/K-562 lysate

PAK4, sequence (O96013 whole entry, looked up): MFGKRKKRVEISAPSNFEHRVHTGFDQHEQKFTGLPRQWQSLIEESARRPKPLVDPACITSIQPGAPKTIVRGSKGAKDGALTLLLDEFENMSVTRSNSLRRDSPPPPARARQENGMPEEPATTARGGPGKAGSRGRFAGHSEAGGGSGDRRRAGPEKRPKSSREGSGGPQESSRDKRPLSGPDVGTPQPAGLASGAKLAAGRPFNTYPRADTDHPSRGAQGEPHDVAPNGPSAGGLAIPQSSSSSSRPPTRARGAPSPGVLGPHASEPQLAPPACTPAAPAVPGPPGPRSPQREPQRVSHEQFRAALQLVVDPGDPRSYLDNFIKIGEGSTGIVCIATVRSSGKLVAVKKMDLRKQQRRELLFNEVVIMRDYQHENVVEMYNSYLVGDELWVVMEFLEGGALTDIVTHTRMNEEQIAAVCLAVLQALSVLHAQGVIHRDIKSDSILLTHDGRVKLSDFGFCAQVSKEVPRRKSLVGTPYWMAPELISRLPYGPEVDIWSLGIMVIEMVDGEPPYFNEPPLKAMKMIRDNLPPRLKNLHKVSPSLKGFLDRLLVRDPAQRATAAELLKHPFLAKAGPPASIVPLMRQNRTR

apparent dissociation constant (-log10 M) [1]	apparent dissociation constant (-log10 M) [2]	apparent dissociation constant (-log10 M) [3]	apparent dissociation constant (-log10 M) [4]	apparent dissociation constant (-log10 M) [5]	apparent dissociation constant (-log10 M) [6, 24]	apparent dissociation constant (-log10 M) [7]	apparent dissociation constant (-log10 M) [8]	apparent dissociation constant (-log10 M) [9]	apparent dissociation constant (-log10 M) [10]	apparent dissociation constant (-log10 M) [11]	apparent dissociation constant (-log10 M) [12]	apparent dissociation constant (-log10 M) [13]	apparent dissociation constant (-log10 M) [14]	apparent dissociation constant (-log10 M) [15]	apparent dissociation constant (-log10 M) [16]	apparent dissociation constant (-log10 M) [17]	apparent dissociation constant (-log10 M) [18]	apparent dissociation constant (-log10 M) [19]	apparent dissociation constant (-log10 M) [20]	apparent dissociation constant (-log10 M) [21]	apparent dissociation constant (-log10 M) [22]	apparent dissociation constant (-log10 M) [23]	apparent dissociation constant (-log10 M) ([6]; affinity matrix / lysate: Kinobeads, mixed HEK293/K-562/placenta lysate)	SMILES
< 6	< 6	< 6	< 6	< 6	6.57	< 6	< 6	< 6	< 6	< 6	< 6	< 6	< 6	< 6	< 6	< 6	< 6	< 6	< 6	< 6	< 6	6.36		COc1ccc(-c2ccc3c(N4CCOC[C@@H]4C)nc(N4CCOC[C@@H]4C)nc3n2)cc1CO [AZD8055]
< 6	< 6	< 6	< 6	< 6	< 6	< 6	< 6	< 6	< 6	< 6	< 6	< 6	< 6	< 6	< 6	< 6	< 6	< 6	< 6	< 6	< 6	< 6	< 6	CCNC(=O)Nc1ccc(-c2nc(N3CCOC[C@@H]3C)c3c(n2)C(C)(C)S(=O)(=O)C3)cc1 [CZ415]

Reference: the supplement of paper PMC6315032
